Measured values as given in patent US9028797B2, “Composite body for antigen or drug delivery” (priority 2010, dated 2015).

Key:
[1] = system: dendritic cell line, DC2.4 cell; test: Cellular uptake of fluorescently labeled BSA, fluorescence microscopy (Example 3); assay type: cell-based; details: incubated 2 hr, imaged 22 hr later
Procedure: As a model protein, bovine serum albumin (BSA) was fluorescently labeled with rhodamine B isothiocyanate and used. A BSA/BAC/γ-PGA complex prepared using benzalkonium chloride (BAC) and γ-PGA with BSA or BSA was added to a dendritic cell line, DC2.4 cell, and the mixture was incubated for 2 hr. The cells were washed and fluorescence images of the cell were measured by a fluorescence microscope 22 hr later.

[2] = system: OVA-expressing cancer cell (EG7); test: Tumor growth of intradermally transplanted OVA-expressing cancer cell after immunization (Example 14); assay type: in vivo, mice; details: EG7 intradermally transplanted 2 weeks after final immunization
Procedure: OVA/BK/γ-PGA complex was constructed using ovalbumin (OVA), benzalkonium chloride (BK) and γ-PGA. To the mice were administered OVA alone, benzalkonium chloride and γ-PGA (vector alone), and OVA/BK/γ-PGA complex every other week, 4 times in total. After 2 weeks from the final immunization, OVA-expressing cancer cell (EG7) was intradermally transplanted, and the tumor growth after transplantation was observed.

OVA = test: Antibody titer to OVA by ELISA in serum of immunized mice (Example 13); assay type: in vivo; details: mouse serum 2 weeks after final immunization; every other week, 4 times
Procedure: OVA/BK/γ-PGA complex was constructed using ovalbumin (OVA), benzalkonium chloride (BK) and γ-PGA. OVA alone, benzalkonium chloride and γ-PGA (vector alone), and OVA/BK/γ-PGA complex were administered to mice every other week, 4 times in total for immunization. After 2 weeks from the final immunization, the serum was collected, and the antibody titer to OVA was measured by ELISA. For the measurement of the antibody titer, an HRP-labeled goat-derived anti-mouse IgG antibody was used as the secondary antibody.

Substance	cellular uptake by dendritic cell (fluorescence of BSA) [1]	tumor growth suppressive effect [2]	antibody titer to OVA (immunity induction effect) (OVA)
bovine serum albumin [BSA]	not observed		
ovalbumin [ovalbumin antigen alone]		did not show a tumor growth suppressive effect	did not show an immunity induction effect
